Here are results for ten compounds from patent publication US20110171192A1, “SUBSTITUTED AMINE DERIVATIVE AND MEDICINAL COMPOSITION COMPRISING SAME AS THE ACTIVE INGREDIENT” (priority 2008, published 2011).

For one data set, the system named is absorption of adenosine. The data set can be described thus: Inhibition of absorption of orally given [3H]-adenosine in rats (serum radioactivity). Type of data set: in vivo. To be noted: male SD rats, oral; for ED50: Rattus norvegicus, 50% inhibitory dose on absorption of adenosine, from regression line; for ED50 value (in words): inhibition on absorption of adenosine. On the procedure: Four weeks old male SD rats (Charles river japan corporation) were purchased and the animals over 1 weeks quarantine were used. Body weight of the rats fasted 24 hours from last day were measured and grouped used grouping soft (Stat light #11, Yukums corporation). Test compound and [^3H]-adenosine solution (4 μCi/mL) were given orally at the volume of 2 mL/kg, and about 500 μL of blood were obtained from retro orbital vein. The blood was centrifuged at 3000 rpm for 10 min, and 13 μL of H2O2 solution were added to the 100 μL of resulted serum and placed for 10 min. And 5 mL of liquid scintilation cocktail added and mixed enough, and radio activity was measured using liquid scintillation counter. Inhibitory rate was calculated according to the formula described as follow, and the regression line was obtained from inhibitory rate and its log dose. The 50% inhibitory dose of the compound (ED50) at the inhibition on absorption of adenosine was calculated used regression line formula The results were shown in Table 2.
Inhibitory ratio={1−radio activity of the serum obtained from rats treated with test compound (dpm)/radio activity of the serum obtained from rats treated with vehicle (dpm)}×100

Another data set has as its target T1, human CNT2 (Homo sapiens, UniProt O43868).
T1 construct: expressed in transfected cells
T1 sequence (O43868 1-658): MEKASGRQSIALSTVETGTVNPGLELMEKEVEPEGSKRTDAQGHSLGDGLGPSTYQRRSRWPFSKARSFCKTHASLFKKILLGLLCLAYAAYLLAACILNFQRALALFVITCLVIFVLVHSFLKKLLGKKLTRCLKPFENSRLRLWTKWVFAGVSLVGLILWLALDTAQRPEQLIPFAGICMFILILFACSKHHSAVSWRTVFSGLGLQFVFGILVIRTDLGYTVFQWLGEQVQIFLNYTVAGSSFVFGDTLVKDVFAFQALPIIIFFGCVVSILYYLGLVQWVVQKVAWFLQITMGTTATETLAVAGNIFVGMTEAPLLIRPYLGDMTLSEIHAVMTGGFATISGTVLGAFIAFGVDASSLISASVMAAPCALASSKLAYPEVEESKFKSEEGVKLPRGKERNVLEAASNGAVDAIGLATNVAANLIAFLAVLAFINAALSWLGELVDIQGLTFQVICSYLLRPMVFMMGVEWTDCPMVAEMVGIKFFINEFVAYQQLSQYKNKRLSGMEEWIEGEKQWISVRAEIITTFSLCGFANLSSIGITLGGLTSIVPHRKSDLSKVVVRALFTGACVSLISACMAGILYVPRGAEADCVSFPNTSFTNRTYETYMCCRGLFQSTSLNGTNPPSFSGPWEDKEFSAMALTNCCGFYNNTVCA
Put plainly: Inhibitory activity against uptake of adenosine through human CNT2. Type of data set: cell-based. To be noted: human CNT2 transiently expressing cells, 14C-adenosine 10 μM, 30 minutes at 37° C., NBMPR 10 μM. The protocol:
Measurement of Inhibitory Activity Against Uptake of Adenosine Through Human CNT2
An Uptake buffer was prepared by addition of a mixture of non-radioisotope labeled (Sigma) and ^14C-labeled (GE Healthcare) adenosine at the final concentration of 10 μM into a buffer, pH 7.4, containing 140 mM sodium chloride, 2 mM potassium chloride, 1 mM calcium chloride, 1 mM magnesium chloride, 10 mM HEPES
2-[4-(2-hydroxyethyl)-1-piperazinyl]thane sulfonic acid, 5 mM tris(hydroxymethyl)aminomethane and 5 mM glucose. For measurement of basal uptake, Basal uptake measurement buffer, which contained 140 mM choline chloride instead of sodium chloride was prepared. In uptake assays, NBMPR was added to Uptake buffer and Basal uptake measurement buffer at the final concentration of 10 μM. In the case of measurement of inhibitory activity of test compounds, test compounds were dissolved in dimethyl sulfoxide, and then appropriately diluted with Uptake buffer as to Measurement buffers. After removing culture medium of human CNT2 transiently expressing cells, Pretreatment buffer (Basal uptake measurement buffer without adenosine and glucose) was added to wells at 500 μL/well and incubated at 37° C. for 10 minutes. After repeating the same step again, Pretreatment buffer was removed and Measurement buffers and Basal uptake measurement buffer were added at 300 μL/well and incubated at 37° C. After incubation for 30 minutes, Measurement buffers and Basal uptake measurement buffer were removed, and the cells were washed with Washing buffer (Basal uptake measurement buffer with non-radioisotope labeled adenosine at 10 μM) at 500 μL/well twice. The cells were solubilized with 0.5 mol/L sodium hydroxide at 200 μL/well, and the cell lysates were transferred into glass vials at 100 μL. After mixing with 5 mL of ACS-II (GE Healthcare Bioscience), radioactivity was measured by means of scintillation counter (Aloka). One hundred % was set to the difference between the uptake in the control group and the basal uptake, and the uptake of adenosine at each test compound concentration was calculated. The test compound concentration inhibiting 50% uptake of adenosine (IC50 value) was calculated using regression line. […] The IC50 value was expressed as A; 1˜10 nM, B; 10˜100 nM or not less than 100 nM;

Data set [1] can be described thus: Stability of nucleic acid transporter inhibitor in solution (acetate buffer pH 3, HPLC). The class given is physicochemical. To be noted: for residual ratio of the compound (%): acetate buffer pH 3, 10^−5 M, 25 °C, 20 hours after. The protocol:
Stability of Nucleic Acid Transporter Inhibitor in Solution
0.02 mL of comparative compound or compound (1) methanol solution at the concentration of 10^−3 M was added to the 1.98 mL of acetate buffer, pH 3 (final concentration of 10^−5 M). The solutions were incubated at 25 °C, and the reaction solutions were collected at 2, 4 and 20 hours later. Each obtained 0.5 mL of reaction solutions were neutralized and adjusted to 1 mL, and 0.01 mL of 10^−3 M methanol solutions of 4-hydroxy were spiked as internal standard substrate. The solutions were measured by HPLC according to the measurement condition shown as follows, and the ratio (IS ratio) compared the amount of internal standard substrate with the amount of compounds was calculated. The remaining rate of test compounds were obtained to compare the IS ratio with IS ratio of pre-incubation according to the method described above.
HPLC Analytical Condition • column: Inertsil ODS-2 (φ4.6×150 mm) • Mobile phase: 20 mM phosphate buffer (pH 6)/CH3CN=7/3 (w/w) • Detection absorbance: 250 nm • Flow rate: 1 mL/min • Injection volume: 0.02 mL • Time span of measurement: 20 min

pIC50: −log10 of the molar value.

The term ED50 denotes the dose that gives a 50% effect, or the effect in half of the subjects. As usually defined, the pIC50 is the IC50 on a negative log10 scale, so that one unit is a factor of ten. Lower therefore signals a large IC50. Turning to `CCOC(=O)CCCCOc1cc(CNc2c(C#N)c3c(N)ncnc3n2C2O[C@H](CO)[C@@H](O)[C@@]2(C)O)ccc1-c1ccccc1` (stereo partly drawn) [Compound (2), 5-(4-{[4-Amino-5-cyano-7-(3,4-dihydroxy-5-hydroxymethyl-3-methyl-tetrahydrofuran-2-yl)-7H-pyrrolo[2,3-d]pyrimidin-6-ylamino]-methyl}-biphenyl-2-yloxy)-pentanoic acid ethyl ester], in the data set with absorption of adenosine, the ED50 turned out to be 1.4 mg/kg and the “ED50 value (in words)” value is reported as “high ED50 value”. Also, the pIC50 against human CNT2 is 7.00 to 8.00.
In turn, `CCOC(=O)CCCCOc1cc(CNc2c(C#N)c3c(O)ncnc3n2C2O[C@H](CO)[C@@H](O)[C@@]2(C)O)ccc1-c1ccccc1` (stereo partly drawn) [Compound (9), 5-(4-{[5-Cyano-7-(3,4-dihydroxy-5-hydroxymethyl-3-methyltetrahydro-furan-2-yl)-4-hydroxy-7H-pyrrolo[2,3-d]pyrimidin-6-ylamino]methyl}-biphenyl-2-yloxy)-pentanoic acid ethyl ester] showed a pIC50 on human CNT2 of at most 7.00.
In the case of `C[C@]1(O)C(n2c(NCc3ccc(-c4ccccc4)c(OCCCCO)c3)c(C#N)c3c(N)ncnc32)O[C@H](CO)[C@H]1O` (stereo partly drawn) [Compound (8), 4-Amino-7-(3,4-dihydroxy-5-hydroxymethyl-3-methyl-tetrahydro-furan-2-yl)-6-{[2-(4-hydroxy-butoxy)-biphenyl-4-ylmethyl]-amino}-7H-pyrrolo[2,3-d]pyrimidine-5-carbonitrile], in the data set on absorption of adenosine, the ED50 was 0.78 mg/kg and the “ED50 value (in words)” value is on record as “high ED50 value”. The compound also showed a pIC50 against human CNT2 of 8.00 to 9.00.
In the same order, the values of `C[C@]1(O)C(n2c(NCc3ccc(-c4ccccc4)c(OCCCCN4CCOCC4)c3)c(C#N)c3c(N)ncnc32)O[C@H](CO)[C@H]1O` (stereo partly drawn) [Compound (4), 4-Amino-7-(3,4-dihydroxy-5-hydroxymethyl-3-methyl-tetrahydro-furan-2-yl)-6-{[2-(4-morpholin-4-yl-butoxy)-biphenyl-4-ylmethyl]-amino}-7H-pyrrolo[2,3-d]pyrimidine-5-carbonitrile] are 0.51 mg/kg, “high ED50 value” and 7.00 to 8.00.
For `C[C@]1(O)C(n2c(NCc3ccc(-c4ccccc4)c(OCCCCCl)c3)c(C#N)c3c(N)ncnc32)O[C@H](CO)[C@H]1O` (stereo partly drawn) [Compound (3), 4-Amino-6-{[2-(4-chloro-butoxy)-biphenyl-4-ylmethyl]-amino}-7-(3,4-dihydroxy-5-hydroxymethyl-3-methyl-tetrahydro-furan-2-yl)-7H-pyrrolo[2,3-d]pyrimidine-5-carbonitrile] the same measures were 1.1 mg/kg, “high ED50 value” and 7.00 to 8.00.
Turning to `CC(C)(C)[Si](C)(C)OCCCCOc1cc(CNc2c(C#N)c3c(N)ncnc3n2C2O[C@H](CO)[C@@H](O)[C@@]2(C)O)ccc1-c1ccccc1` (stereo partly drawn) [Compound (5), 4-Amino-6-({2-[4-(tert-butyl-dimethyl-silanyloxy)-butoxy]-biphenyl-4-ylmeth-yl}-amino)-7-(3,4-dihydroxy-5-hydroxymethyl-3-methyl-tetrahydro-furan-2-yl)-7H-pyrrolo[2,3-d]pyrimidine-5-carbonitrile], at human CNT2, the pIC50 is at most 7.00.
In the case of `C[C@@]1(O)[C@H](O)[C@@H](CO)O[C@H]1n1c(NCc2ccc(-c3ccccc3)cc2)c(C#N)c2c(N)ncnc21` [Compound (1), 4-Amino-6-[(biphenyl-4-ylmethyl)-amino]-7-(3,4-dihydroxy-5-hydroxymethyl-3-methyl-tetrahydro-furan-2-yl)-7H-pyrrolo[2,3-d]pyrimidine-5-carbonitrile], in the data set with absorption of adenosine, the ED50 amounted to 1.3 mg/kg and the “ED50 value (in words)” value is “high ED50 value”. This compound also gave a pIC50 against human CNT2 of at most 7.00. Further, in data set [1], the “residual ratio of the compound (%)” value came out at 85.0%. Moreover, the “Stability in pH3 solution (in words)” value in data set [1] (pH3 solution, versus comparative compound) is on record as “better than that of comparative compound”.
The compound `C[C@]1(O)C(n2c(NCc3ccc(-c4ccccc4)c(OCCCCN4CCCCC4)c3)c(C#N)c3c(N)ncnc32)O[C@H](CO)[C@H]1O` (stereo partly drawn) [Compound (6), 4-Amino-7-(3,4-dihydroxy-5-hydroxymethyl-3-methyl-tetrahydro-furan-2-yl)-6-{[2-(4-piperidin-1-yl-butoxy)-biphenyl-4-ylmethyl]-amino}-7H-pyrrolo[2,3-d]pyrimidine-5-carbonitrile] gave a negative-log IC50 (pIC50) against human CNT2 of 7.00 to 8.00.
`CN(C)C(=O)CCCCOc1cc(CNc2c(C#N)c3c(N)ncnc3n2C2O[C@H](CO)[C@@H](O)[C@@]2(C)O)ccc1-c1ccccc1` (stereo partly drawn) [Compound (7), 5-(4-{[4-Amino-5-cyano-7-(3,4-dihydroxy-5-hydroxymethyl-3-methyltetrahydrofuran-2-yl)-7H-pyrrolo[2,3-d]pyrimidin-6-ylamino]-methyl}-biphenyl-2-yloxy)-pentanoic acid dimethylamide]: in the data set on absorption of adenosine, the ED50 was determined as 3 mg/kg and the “ED50 value (in words)” value is listed as “high ED50 value”. The negative logarithm of the IC50 (pIC50) against human CNT2 is 8.00 to 9.00.
Regarding `N#Cc1c(NCc2ccc(-c3ccccc3)cc2)n(C2O[C@H](CO)[C@@H](O)[C@H]2O)c2ncnc(N)c12` (stereo partly drawn) [Comparative compound, reference compound], the “residual ratio of the compound (%)” value in data set [1] is listed as 45.0%.
